Measurements reported in patent US20090269795A1, “Mutant alpha4betadelta GABAA receptor and methods of treating anxiety or irritability” (priority 2007, published 2009).
Structures can show the parent of a compound that is named as a salt.

Assays:
female C57BL6 mice = assay: Elevated plus maze (with or without restraint stress); format: in vivo, mouse; conditions: pre-administration before restraint stress; pubertal
Excerpt: Animal subjects. Prepubertal and pubertal female C57BL6 mice (3½-6 weeks old, +/+ and δ^−/−1) were housed in a reverse light:dark cycle (12:12). Both sets of mice were originally supplied by G. Homanics (Univ. of Pittsburgh), and were bred on site, with +/+ mice supplemented from Jackson Laboratories (Bar Harbor, Me.). Initially, age-matched+/+littermates of the δ^−/−were used as controls, but because they were indistinguishable from C57BL6, data from both groups were pooled. Genotyping of the tails verified that mice were homozygous δ^−/−. Some animals (+/+ or δ^−/−) were injected with finasteride (1,(5α)-androstene-4-aza-3-one-N-tert-butyl-17β-carboxaminde, Steraloids, 50 mg kg^, −1 intraperitoneally, 3 days) to block THP synthesis^2 or oil vehicle on a daily basis 1-1.5 h before dark onset, when THP levels increase, and tested 30 min. later. The onset of puberty was determined by vaginal opening, and pubertal mice tested on the day of first metestrus, identified by vaginal morphology and verification of first estrus the previous day. Mice with vaginal smears representative of diestrus were excluded from the study. Individual stages of puberty were not distinguished, and pre-pubertal mice were used before any visible signs of pubertal development, assessed by development of the peri-vaginal area. In some cases, pubertal mice were injected with replacement THP (3α-OH-5β-pregnan-20-one, 10 mg kg^−1, intraperitoneally in oil) for three days before testing. Procedures were in accordance with the SUNY Downstate Institutional Animal Care and Use Committee.
Restraint stress. In order to test the effect stress-induced release of THP^6,46,47 on anxiety, mice were restrained in a clear Plexiglas tube-type holder (Harvard Apparatus) for 45 min. and tested 20 min. later on the elevated plus maze (see Supplementary Methods). Open arm time was evaluated for 5 min. on the elevated plus maze. A decrease in open arm time reflects an increase in anxiety^18. In all cases, the results from each mouse tested after restraint was expressed relative to the averaged results from the sham controls, which were identical to the stressed animals (age, genotype, sex, drug-injected), except that they were not subjected to restraint stress.
Elevated plus maze. Testing rodent behavior on the elevated plus maze is an established animal model of anxiety^31. The plus maze consists of four 8×35 cm arms at 90° angles, elevated 57 cm above the floor. Two arms are enclosed by 33 cm walls, and two arms have no walls (“open arms”). […] Each animal was initially acclimated to the room for 30 min-1 h before being placed in the center of the maze, and exploratory activity recorded for 5 min. […]

α4β2δ GABAA receptors = assay: Whole cell patch clamp of GABA-gated current, recombinant receptors in HEK-293 cells; format: cell-based, human or mouse α4, rat β2, human δ
Excerpt: (§1) Recombinant receptors: Transfection—Plasmids obtained from S. Vicini (rat α1, α5, β2, β3 and γ2), P. Whiting (human α4 and δ) and N. L. Harrison (mouse α4) were propagated in E coli DH5α and prepared using Qiagen Maxi- or Midi-prep kits. (Rat, mouse and human α1, β2, β3 and γ2 subunits are identical or nearly identical.) All receptors were transfected at a 1:1:1 ratio, except α1β2γ2 (1:1:5)^12, α4βδ (5:1:5)^13 and α4β2γ2 (5:1:1). HEK-293 cells were maintained in medium (DMEM:Ham's F-12 1:1) supplemented with 10% fetal calf serum at 37° C. in a humid 5% CO2 atmosphere. Cells were transfected using calcium phosphate or Polyfect (Qiagen) and co-transfected with enhanced green fluorescent protein (ratio of DNA to eGFP was 6:1 or 10:1 depending on the DNA concentration) for visualization. α4-containing GABAA receptors required 2-3 d for maximal levels of expression; all other receptors were recorded 1-2 d after transfection. Because mouse α4 and human α4-containing receptors yielded the same results, the currents were averaged together.
Whole cell patch clamp recording—GABA-gated currents were recorded at room temperature (20-22° C.) at a holding potential of −50 mV^14. The pipet solution contained (in mM): N-methyl-D-glucamine chloride 120, Cs4BAPTA 5 (Calbiochem), Mg-ATP 5, and an ATP regeneration system (20 mM Tris phosphocreatine and creatine kinase). Internal [Cl^−] or the holding potential were varied, using gluconate as the anion, to alter the direction of Cl^− flow, corrected for the junction potential. In some cases, current-voltage curves were constructed using the peak current response to agonist or agonist+THP across a range of holding potentials (−60 to +60) applied as 10 mV steps, or as a voltage ramp. […] Traces are presented as the average of 3 traces after subtraction of the leak current. […] This rapid application technique yields currents with a rapid rise phase. THP was also bath applied 30 s prior to tests of steroid effects. Currents were recorded using an Axopatch 1D amplifier (Axon Instruments) filtered at 2 kHz (four-pole Bessel filter) and detected at 10 kHz (pClamp 5.1). Analysis of peak current was accomplished with pClamp 9.2 and Origin software (Microcal).
Following the recording, the patch was blown out, and the open tip potential recorded using solutions with a 5% difference in NaCl osmolarity to verify the approximate solution exchange time. The time constant (τ) for desensitization was approximated using non-linear curve fitting routines with Levenburg-Marquardt algorithms (Origin software, Microcal). Goodness of fit was determined by minimizing the sum of the squares of deviations of the theoretical curve from the experimental points.
Recombinant receptors: Human embryonic kidney (HEK)-293 cells were transfected with α4 β2δ or other indicated subunit combinations (see Supplementary Methods) and co-transfected with enhanced green fluorescent protein for visualization. GABA-gated currents were recorded at room temperature (20-22° C.) at a holding potential of −50 mV^17 using a pipet solution containing 120 mM: N-methyl-D-glucamine chloride. Internal [Cl^−] or the holding potential were varied to alter the direction of Cl^− flow. […] Currents were recorded using an Axopatch 1D amplifier (Axon Instruments) filtered at 2 kHz (four-pole Bessel filter), detected at 10 kHz and analyzed with pClamp 9.2. Desensitization rate was determined using non-linear curve-fitting routines (Origin, Microcal; see next section).
Further Studies with Recombinant receptors: Transfection—Plasmids obtained from S. Vicini (rat α1, α5, β2, β3 and y2), P. Whiting (human α4 and 6) and N. L. Harrison (mouse α4) were propagated in E coli DH5α and prepared using Qiagen Maxi- or Midi-prep kits. (Rat, mouse and human α1, β2, β3 and γ2 subunits are identical or nearly identical.) All receptors were transfected at a 1:1:1 ratio, except a132γ2 (1:1:5)^12, α4β28 (5:1:5)^13 and α4β2γ2 (5:1:1). […]

hippocampal THP levels = assay: Radioimmunoassay of hippocampal 3α,5α-THP levels; format: in vivo, mouse; conditions: administration of 5α-reductase blocker
Excerpt: Animal subjects. Prepubertal and pubertal female C57BL6 mice (3½-6 weeks old, +/+ and δ^−/−1) were housed in a reverse light:dark cycle (12:12). Both sets of mice were originally supplied by G. Homanics (Univ. of Pittsburgh), and were bred on site, with +/+ mice supplemented from Jackson Laboratories (Bar Harbor, Me.). Initially, age-matched+/+littermates of the δ^−/−were used as controls, but because they were indistinguishable from C57BL6, data from both groups were pooled. Genotyping of the tails verified that mice were homozygous δ^−/−. […] The onset of puberty was determined by vaginal opening, and pubertal mice tested on the day of first metestrus, identified by vaginal morphology and verification of first estrus the previous day. […] Individual stages of puberty were not distinguished, and pre-pubertal mice were used before any visible signs of pubertal development, assessed by development of the peri-vaginal area. […]
Radioimmunoassay for 3α,5α-THP. Hippocampal levels of 3α,5α-THP were assessed by radioimmunoassay (RIA) by C. […] Sample tube concentrations were calculated using the logit-log method^6, interpolation of the standards, and correction for recovery. […]

α4β2γ2 receptors = assay: Whole cell patch clamp of GABA-gated current, recombinant receptors in HEK-293 cells; format: cell-based, human or mouse α4, rat β2, rat γ2
Excerpt: as §1
Whole cell patch clamp recording—GABA-gated currents were recorded at room temperature (20-22° C.) at a holding potential of −50 mV^14. […] Currents were recorded using an Axopatch 1D amplifier (Axon Instruments) filtered at 2 kHz (four-pole Bessel filter) and detected at 10 kHz (pClamp 5.1). […]

[1] = tested on: CA1 hippocampal pyramidal cells (α4βδ receptors); assay: La3+-sensitive gaboxadol-induced current, whole cell patch clamp, hippocampal slice; format: cell-based, mouse; conditions: 30 μM GBX, after puberty or THP Wd
[2] = tested on: CA1 hippocampal pyramidal cells; assay: Input resistance and neuronal excitability (spiking), hippocampal slice; format: cell-based, mouse; conditions: puberty
Protocol: Tonic current was recorded as the difference current produced by 120 μM gabazine, which blocks all GABAA receptor, before and after 30 nM THP^24. Current was also recorded in response to 2 s 10 mV steps in the holding potential, and current-voltage curves generated to the steady-state current. Because fast-inactivating conductances would not be excluded in a voltage ramp, stable steady-state current responses were used instead to construct the current-voltage (IV) curves. Input resistance (Rm) was calculated from the current response to voltage steps from −60 to −40 mV using Ohm's Law. The reversal potential was determined by the […] of the IV curve (−90 to −10 mV). The gabazine-sensitive slope conductance was assessed as the slope of the linear portion of outward current plot recorded before and after THP after subtraction of the gabazine-generated current (in the presence of L-655,708 to block α5-GABAA receptors). Only data with a stable baseline and pipet access resistance <10 MΩ were included in the analysis.
Effects of THP on cell excitability were tested by monitoring spiking using cell attached patch recordings^31 in voltage clamp mode (−40 mV holding potential, 150 mM NaCl intrapipet solution) or assessing the current threshold to spiking and spike frequency in current clamp mode (0.01-0.3 nA steps, starting from −1 nA, 1 s duration). (More complete details are supplied in the Supplementary Methods.)

[3] = tested on: CA1 hippocampal pyramidal cell dendrites; assay: Tight-seal cell-attached current-clamp recording during dendritic agonist application; format: cell-based, mouse; conditions: 5 μM; stratum radiatum; pubertal
Protocol: Tonic current was recorded as the difference current produced by the selective GABAA receptor antagonist gabazine (120 μM) before and after 30 nM THP^4,29, while gramicidin perforated-patch recordings^33 were accomplished using 140 mM KCl plus 25 μg ml^−1 gramicidin in the pipet solution, recorded when the access resistance dropped to <60 MΩ after tight seal formation. Estimates of the direction of Cl^− current were obtained by recording using tight-seal cell-attached techniques^31 (>1 GΩ seal) in current clamp mode. A downward deflection signified outward (i.e., hyperpolarizing) Cl^− current.
To determine whether THP inhibition of GABAergic currents at puberty was a physiological phenomenon, we initially verified that GABA-gated currents were outward in CA1 hippocampal pyramidal cell dendrites at the onset of puberty. […] The voltage change was recorded in current clamp mode from the soma using tight-seal cell attached techniques at a holding current of 0 pA^31.

SMILES: CC(=O)[C@H]1CC[C@H]2[C@@H]3CC[C@H]4C[C@@H](O)CC[C@]4(C)[C@H]3CC[C@]12C (single isomer, unassigned; isomer 3) [3β-OH isomer, 3βOH-5α[β]-pregnan-20-one]
- effect on stress-induced increase in anxiety (female C57BL6 mice): prevented the stress-induced increase in anxiety
- inhibitory effect on outward GABA-gated current (α4β2δ GABAA receptors; isomer selectivity, FIG. 1e): selective for the active 3α-OH isomer, but not the inactive 3,3-OH isomer

SMILES: CC(C)(C)NC(=O)[C@H]1CC[C@H]2[C@@H]3CC[C@H]4NC(=O)C=C[C@]4(C)[C@H]3CC[C@]12C [5α-reductase blocker, 1,(5α)-androstene-4-aza-3-one-N-tert-butyl-17β-carboxaminde]
- decline in hippocampal THP levels (hippocampal THP levels): 58±10%

SMILES: NCCCC(=O)O [GABA]
- GABA EC20 (α4β2γ2 receptors): 5000 nM

SMILES: [La+3] [La^3+]
- reduction of GBX-generated current ([1]; 300 μM La3+): 50-70%

SMILES: CCN(c1ccccc1)c1cc(=NC)n(C)c(C)n1.Cl [ZD 7288]
- effect of Ih blockade on excitatory effect of THP ([2]; 20 μM ZD 7288): did not prevent the excitatory effect of THP

SMILES: COc1ccc(-c2ccc(=N)n(CCCC(=O)O)n2)cc1 [gabazine, 6-imino-3-(4-methyoxyphenyl)-1 (6H)-pyridazinebutanoic acid hydrobromide]
- effect on THP-induced increase of input resistance ([2]; 120 μM gabazine pre-applied): prevented

SMILES: Oc1noc2c1CCNC2 [gaboxadol, 4,5,6,7-Tetrahydroisoxazolo[5,4-c]pyridin-3-ol]
- GBX-generated current vs pre-pubertal slices [1]: significantly larger current
- change in membrane potential on dendritic application [3]: downward shift of the membrane potential
